Measurements published in patent US20250009737A1, “COMPOUNDS AND METHODS FOR THE TARGETED DEGRADATION OF ANDROGEN RECEPTOR” (Arvinas Operations, Inc., priority 2023, published 2025).

Experiments:
[1] = test system: CYP1A2, 2B6, 2C8, 2C9, 2C19, 2D6, and 3A4; assay: Direct and time-dependent inhibition of all CYPs tested in pooled human liver microsomes; assay type: in vitro ADME; details: HLM
Description: The induction potential of Compound A on CYP enzymes was assessed in cryopreserved human hepatocytes from three donors. Following treatment for with Compound A at concentrations of 0.03-30 μM for 48 hours, mRNA levels for CYP1A2, 2B6, 2C8, 2C9, 2C19, and 3A4 were determined by semiquantitative real-time polymerase chain reaction (PCR). Test article concentrations during 24-hour incubation were determined. The potential of Compound A to cause direct and time-dependent inhibition (TDI) of the activities of CYP1A2, 2B6, 2C8, 2C9, 2C19, 2D6, and 3A4 was evaluated in pooled human liver microsomes (HLM) at 0.2-15 μM. Probe substrate concentrations around Km were used for direction inhibition and initial TDI assays. For TDI assay, Compound A was pre-incubated with pooled HLM with and without NADPH for 30 minutes prior to incubation with a single concentration of probe substrate.

[2] = target: T1, BCRP (Homo sapiens, UniProt Q9UNQ0); assay: BCRP inhibition in inside-out membrane vesicles from HEK293; assay type: in vitro ADME; set-up: expressed in transfected cells; host or cells: HEK293 (inside-out membrane vesicles); details: substrate Rosuvastatin (1 μM)
T1 sequence (Q9UNQ0 1-655): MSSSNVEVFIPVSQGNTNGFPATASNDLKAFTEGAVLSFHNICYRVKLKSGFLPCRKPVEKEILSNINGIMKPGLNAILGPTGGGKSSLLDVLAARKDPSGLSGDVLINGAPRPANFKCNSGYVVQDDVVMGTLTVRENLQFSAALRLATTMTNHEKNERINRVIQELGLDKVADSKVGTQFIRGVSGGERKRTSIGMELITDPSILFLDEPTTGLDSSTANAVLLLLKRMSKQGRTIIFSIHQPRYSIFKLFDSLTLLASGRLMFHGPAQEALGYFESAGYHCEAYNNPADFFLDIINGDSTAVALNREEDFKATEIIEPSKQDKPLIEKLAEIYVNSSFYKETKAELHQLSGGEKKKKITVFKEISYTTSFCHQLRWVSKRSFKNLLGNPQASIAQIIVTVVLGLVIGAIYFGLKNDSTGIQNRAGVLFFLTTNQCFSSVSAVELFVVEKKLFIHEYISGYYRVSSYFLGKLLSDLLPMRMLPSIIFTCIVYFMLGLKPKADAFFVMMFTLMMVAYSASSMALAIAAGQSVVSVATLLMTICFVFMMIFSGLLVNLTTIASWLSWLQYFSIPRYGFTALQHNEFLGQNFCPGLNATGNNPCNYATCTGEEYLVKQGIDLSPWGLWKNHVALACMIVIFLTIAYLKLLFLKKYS
Description: In addition, the inhibition potential against efflux transporters (P-glycoprotein (Pgp) and breast cancer resistance protein (BCRP)) and uptake transporters (MATE1, MATE2-K, OATP1B1, OATP1B3, OAT1, OAT3, and OCT2) was assessed using single transporter over-expressed cell monolayers (MDCK II or HEK293) or inside-out vesicles.
The potential of Compound A to inhibit Pgp or BCRP was tested for bidirectional transport of the probe substrates in Pgp or BCRP-expressed MDCKII and control monolayers at Compound A concentrations of 0.07-5 μM. Pgp and BCR inhibition were tested in inside-out membrane vesicles prepared from HEK293 overexpressing human Pgp and BCR at concentrations of 0.01-9 μM Compound A in the presence of 4 mM MgATP or MgAMP.

Direct inhibition, maximal inhibition ([1]; all CYPs, up to 15 µM tested): ≤ 12%
TDI (time-dependent inhibition) ([1]; all CYPs, up to 15 µM tested): ≤ 15%
inhibition at 1 µM ([2]; human, probe Rosuvastatin (1 μM), read-out: Maximal % Inhibition): 95%
IC50 [2]: 210 nM
Structure (SMILES): COc1cc(O[C@H]2C(C)(C)[C@H](NC(=O)c3ccc(N4CCC(CN5CCN(c6ccc(C(=O)N[C@H]7CCC(=O)NC7=O)c(F)c6)CC5)CC4)cc3)C2(C)C)ccc1C#N [Compound A, 4-(4-((1-(4-(((1R,3R)-3-(4-cyano-3-methoxyphenoxy)-2,2,4,4-tetramethylcyclobutyl)carbamoyl)phenyl)piperidin-4-yl)methyl)piperazin-1-yl)-N—((S)-2,6-dioxopiperidin-3-yl)-2-fluorobenzamide]
Direct or time-dependent inhibition ([1]; any of the CYP isoforms, 0.2-15 µM): no direct or time-dependent inhibition was observed
